Assay [1] is described as follows: Ratio of Kd for 18S RNA to Kd for 16S RNA.
Assay [2] in a line: Binding affinity to 18S RNA by surface plasmon resonance. (In general: Surface plasmon resonance follows binding to a sensor surface in real time, without labels.)
The nature of assay [3]: Binding affinity to trans-activation response RNA by surface plasmon resonance.
Assay [4] in a line: Binding affinity to 16S RNA by surface plasmon resonance.

`Cc1cn([C@H]2C[C@H](OP(=O)(O)OC[C@H]3O[C@@H](n4cc(C)c(=O)[nH]c4=O)C[C@@H]3O)[C@@H](C(=O)NCCN[C@H]3[C@@H](O)[C@H](N)C[C@H](N)[C@H]3O[C@H]3O[C@H](CN)[C@@H](O)[C@H](O)[C@H]3N)O2)c(=O)[nH]c1=O`: the Ratio in assay [1] is 1.8. Besides, the Kd in assay [2] was 548 µM; in assay [3] it was 634 µM; in assay [4] it was 304 µM.
Consider `Cc1cn(CC(=O)N(CCN)CC(=O)NCCN(CC(=O)NCCN[C@H]2[C@@H](O)[C@H](N)C[C@H](N)[C@H]2O[C@H]2O[C@H](CN)[C@@H](O)[C@H](O)[C@H]2N)C(=O)Cn2ccc(=O)[nH]c2=O)c(=O)[nH]c1=O`, for which the Ratio in assay [1] was 2.08. For the same compound, the equilibrium dissociation constant (Kd) in assay [2] came to 25 µM; in assay [3] it was 8 µM; in assay [4] it was 12 µM.
Regarding `NCCN(CC(=O)NCCN[C@H]1[C@@H](O)[C@H](N)C[C@H](N)[C@H]1O[C@H]1O[C@H](CN)[C@@H](O)[C@H](O)[C@H]1N)C(=O)Cn1cnc2c(N)ncnc21`, in assay [1], the Ratio turned out to be 0.75. Besides, the Kd in assay [2] was found to be 12 µM; in assay [3], 12 µM; in assay [4] it was 16 µM.
Consider `Cc1cn(CC(=O)N(CCNC(=O)CN(CCN)C(=O)Cn2ccc(=O)[nH]c2=O)CC(=O)NCCN[C@H]2[C@@H](O)[C@H](N)C[C@H](N)[C@H]2O[C@H]2O[C@H](CN)[C@@H](O)[C@H](O)[C@H]2N)c(=O)[nH]c1=O`, for which, in assay [1], the Ratio stood at 1.81. For the same compound, the values for the Kd in assay [2], in assay [3] and in assay [4] were 20 µM, 6 µM and 11 µM, respectively.
For the compound `NCCN(CC(=O)NCCN(CC(=O)NCCN[C@H]1[C@@H](O)[C@H](N)C[C@H](N)[C@H]1O[C@H]1O[C@H](CN)[C@@H](O)[C@H](O)[C@H]1N)C(=O)Cn1ccc(=O)[nH]c1=O)C(=O)Cn1ccc(=O)[nH]c1=O`, the Ratio in assay [1] amounted to 2.06. The values for the equilibrium dissociation constant (Kd) in assay [2], in assay [3] and in assay [4] were 35 µM, 11 µM and 17 µM, respectively.
Take `Cc1cn(CC(=O)N(CCN)CC(=O)NCCN[C@H]2[C@@H](O)[C@H](N)C[C@H](N)[C@H]2O[C@H]2O[C@H](CN)[C@@H](O)[C@H](O)[C@H]2N)c(=O)[nH]c1=O`: the Ratio in assay [1] turned out to be 1.38. Moreover, the values for the Kd in assay [2], in assay [3] and in assay [4] were 11 µM, 10 µM and 8 µM, respectively.
`Cc1cn([C@H]2C[C@H](OP(=O)(O)OC[C@H]3O[C@@H](n4cc(C)c(=O)[nH]c4=O)C[C@@H]3O)[C@@H](C(=O)NCCCCCCN[C@H]3[C@@H](O)[C@H](N)C[C@H](N)[C@H]3O[C@H]3O[C@H](CN)[C@@H](O)[C@H](O)[C@H]3N)O2)c(=O)[nH]c1=O`: the Ratio in assay [1] turned out to be 1.28. In addition, the values for the Kd in assay [2], in assay [3] and in assay [4] were 266 µM, 115 µM and 208 µM, respectively.
For `NCCN(CC(=O)NCCN[C@H]1[C@@H](O)[C@H](N)C[C@H](N)[C@H]1O[C@H]1O[C@H](CN)[C@@H](O)[C@H](O)[C@H]1N)C(=O)Cn1ccc(=O)[nH]c1=O`, the Ratio in assay [1] turned out to be 1.21. The values for the dissociation constant Kd in assay [2], in assay [3] and in assay [4] were 17 µM, 24 µM and 14 µM, respectively.
In the same order, the values of `Cc1cn([C@H]2C[C@H](OP(=O)(O)OC[C@H]3O[C@@H](n4ccc(=O)[nH]c4=O)C[C@@H]3O)[C@@H](C(=O)NCCN[C@H]3[C@@H](O)[C@H](N)C[C@H](N)[C@H]3O[C@H]3O[C@H](CN)[C@@H](O)[C@H](O)[C@H]3N)O2)c(=O)[nH]c1=O` are 2.11, 479 µM, 476 µM and 227 µM.
Consider `Cc1cn([C@H]2C[C@H](OP(=O)(O)OC[C@H]3O[C@@H](n4cc(C)c(=O)[nH]c4=O)C[C@@H]3O)[C@@H](C(=O)NCCCN[C@H]3[C@@H](O)[C@H](N)C[C@H](N)[C@H]3O[C@H]3O[C@H](CN)[C@@H](O)[C@H](O)[C@H]3N)O2)c(=O)[nH]c1=O`, for which the Ratio in assay [1] came to 1.76. Besides, the dissociation constant (Kd) in assay [2] was determined as 555 µM; in assay [3] it was 533 µM; in assay [4] it was 316 µM.
For `NC[C@H]1O[C@H](O[C@H]2[C@H](O)[C@@H](O)[C@H](N)C[C@@H]2N)[C@H](N)[C@@H](O)[C@@H]1O` [NEAMINE], the Ratio in assay [1] stood at 2.36. Besides, the dissociation constant (Kd) in assay [2] was 26 µM; in assay [3], 11 µM; in assay [4], 11 µM.
Turning to `Cc1cn(CC(=O)N(CCN)CC(=O)NCCN(CC(=O)NCCN[C@H]2[C@@H](O)[C@H](N)C[C@H](N)[C@H]2O[C@H]2O[C@H](CN)[C@@H](O)[C@H](O)[C@H]2N)C(=O)Cn2cc(C)c(=O)[nH]c2=O)c(=O)[nH]c1=O`, the Ratio in assay [1] is 1.11. The Kd in assay [2] was 10 µM; in assay [3], 5 µM; in assay [4], 9 µM.
As to `Cc1cn([C@H]2C[C@H](O)[C@@H](COP(=O)(O)O[C@H]3C[C@H](n4ccc(=O)[nH]c4=O)O[C@@H]3C(=O)NCCN[C@H]3[C@@H](O)[C@H](N)C[C@H](N)[C@H]3O[C@H]3O[C@H](CN)[C@@H](O)[C@H](O)[C@H]3N)O2)c(=O)[nH]c1=O`, the Ratio in assay [1] is 3.45. Further, the Kd in assay [2] was 1210 µM; in assay [3] it was 1000 µM; in assay [4], 352 µM.
In the same order, the values of `NC[C@H]1O[C@H](O[C@H]2[C@@H](NCCNC(=O)[C@H]3O[C@@H](n4ccc(=O)[nH]c4=O)C[C@@H]3OP(=O)(O)OC[C@H]3O[C@@H](n4ccc(=O)[nH]c4=O)C[C@@H]3O)[C@@H](O)[C@H](N)C[C@@H]2N)[C@H](N)[C@@H](O)[C@@H]1O` are 2.24, 404 µM, 417 µM and 180 µM.

As a reminder, the Kd is the equilibrium constant for the complex coming apart. Read a high Kd as a looser complex.

Values taken from ChEMBL document CHEMBL1142479, “Studies on the synthesis of neamine-dinucleosides and neamine-PNA conjugates and their interaction with RNA” (Bioorg Med Chem Lett, 2008).
